The values below come from patent US8163793B2, “Proline derivatives” (Hoffman-La Roche Inc., priority 2009, dated 2012).

In one experiment the target is Cat L (UniProt P07711). Put plainly: Cathepsin enzyme inhibition assay (fluorogenic peptide substrate Z-Val-Val-Arg-AMC), Cathepsin L. Format: biochemical, human and mouse. Conditions: enzyme 1 nM, substrate 20 μM, pH 6.5; read-out: CatL IC50. Summed up: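 Fluorogenic cleavage of Z-Val-Val-Arg-AMC (20 μM) by 1 nM Cat L was monitored at ex 360/em 465 nm for 20 min, the linear phase. The buffer was 100 mM potassium phosphate pH 6.5 with 5 mM EDTA and DTT. IC50 values were derived by standard methods, in μM.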

Another experiment addresses Cathepsin S (UniProt P25774). As to the kind of experiment: Cathepsin enzyme inhibition assay (fluorogenic peptide substrate Z-Val-Val-Arg-AMC), Cathepsin S. The experiment is classed as biochemical, human and mouse. The note with it: enzyme 1 nM, substrate 20 μM, pH 6.5; read-out: CatS IC50. Summed up:
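Compounds were combined with 1 nM human or mouse enzyme, and substrate then started the reaction. The buffer was potassium phosphate (100 mM, pH 6.5) containing EDTA-Na 5 mM, Triton X-100 0.001% and […] 5 mM.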

As to `CCN1C[C@H](S(=O)(=O)c2ccccc2Cl)C[C@H]1C(=O)NC1(C#N)CC1` [Example 83, (2S,4R)-4-(2-Chloro-benzenesulfonyl)-1-ethyl-pyrrolidine-2-carboxylic acid (1-cyano-cyclopropyl)-amide], the IC50 (in general, the concentration that gives 50% inhibition) was found to be 62100 nM at Cat L and 30.5 nM on Cathepsin S.
Regarding `N#CC1(NC(=O)[C@@H]2C[C@@H](S(=O)(=O)c3ccccc3Cl)CN2C2CCC2)CC1` [Example 84, (2S,4R)-4-(2-Chloro-benzenesulfonyl)-1-cyclobutyl-pyrrolidine-2-carboxylic acid (1-cyano-cyclopropyl)-amide], the values for the IC50 on Cat L and on Cathepsin S were no less than 25000 nM and 55 nM, respectively.
Taken in the same sequence, the figures for `N#CC1(NC(=O)[C@@H]2C[C@@H](S(=O)(=O)c3ccccc3Cl)CN2C2CCCCC2)CC1` [Example 85, (2S,4R)-4-(2-Chloro-benzenesulfonyl)-1-cyclohexyl-pyrrolidine-2-carboxylic acid (1-cyano-cyclopropyl)-amide] were no less than 25000 nM and 9.4 nM.
Taken in the same sequence, the figures for `N#CC1(NC(=O)[C@@H]2C[C@@H](S(=O)(=O)c3ccccc3Cl)CN2Cc2ccncc2)CC1` [Example 86, (2S,4R)-4-(2-Chloro-benzenesulfonyl)-1-pyridin-4-ylmethyl-pyrrolidine-2-carboxylic acid (1-cyano-cyclopropyl)-amide] were 14600 nM and 23 nM.
Taken in the same sequence, the figures for `N#CC1(NC(=O)[C@@H]2C[C@@H](S(=O)(=O)c3ccccc3Cl)CN2CCc2ccccc2)CC1` [Example 87, (2S,4R)-4-(2-Chloro-benzenesulfonyl)-1-phenethyl-pyrrolidine-2-carboxylic acid (1-cyano-cyclopropyl)-amide] were 4720 nM and 37.5 nM.
Consider `N#CC1(NC(=O)[C@@H]2C[C@@H](S(=O)(=O)c3ccccc3Cl)CN2CC(F)F)CC1` [Example 88, (2S,4R)-4-(2-Chloro-benzenesulfonyl)-1-(2,2-difluoro-ethyl)-pyrrolidine-2-carboxylic acid (1-cyano-cyclopropyl)-amide], for which the IC50 at Cat L was no less than 25000 nM; on Cathepsin S, 275 nM.
`N#CC1(NC(=O)[C@@H]2C[C@@H](S(=O)(=O)c3ccccc3Cl)CN2CC(F)(F)F)CC1` [Example 89, (2S,4R)-4-(2-Chloro-benzenesulfonyl)-1-(2,2,2-trifluoro-ethyl)-pyrrolidine-2-carboxylic acid (1-cyano-cyclopropyl)-amide]: the IC50 at Cat L is no less than 25000 nM; at Cathepsin S, 110 nM.
For the compound `CC(CN1C[C@H](S(=O)(=O)c2ccccc2Cl)C[C@H]1C(=O)NC1(C#N)CC1)C(F)(F)F` (stereo partly drawn) [Example 90, (2S,4R)-4-(2-Chloro-benzenesulfonyl)-1-(3,3,3-trifluoro-2-methyl-propyl)-pyrrolidine-2-carboxylic acid (1-cyano-cyclopropyl)-amide], the values for the IC50 at Cat L and on Cathepsin S were no less than 25000 nM and 84.5 nM, respectively.
Taken in the same sequence, the figures for `N#CC1(NC(=O)[C@@H]2C[C@@H](S(=O)(=O)c3ccccc3Cl)CN2CCC(F)(F)F)CC1` [Example 91, (2S,4R)-4-(2-Chloro-benzenesulfonyl)-1-(3,3,3-trifluoro-propyl)-pyrrolidine-2-carboxylic acid (1-cyano-cyclopropyl)-amide] were no less than 25000 nM and 120 nM.
Taken in the same sequence, the figures for `N#CC1(NC(=O)[C@@H]2C[C@@H](S(=O)(=O)c3ccccc3Cl)CN2CC(F)(F)C(F)(F)F)CC1` [Example 92, (2S,4R)-4-(2-Chloro-benzenesulfonyl)-1-(2,2,3,3,3-pentafluoro-propyl)-pyrrolidine-2-carboxylic acid (1-cyano-cyclopropyl)-amide] were 61700 nM and 41 nM.
As for `CN1C[C@H](S(=O)(=O)c2ccccc2Cl)C[C@H]1C(=O)NC1(C#N)CC1` [Example 93, (2S,4R)-4-(2-Chloro-benzenesulfonyl)-1-methyl-pyrrolidine-2-carboxylic acid (1-cyano-cyclopropyl)-amide], the IC50 at Cat L was no less than 25000 nM; at Cathepsin S it was 966 nM.
Taken in the same sequence, the figures for `CN1C[C@H](S(=O)(=O)c2ccccc2Cl)C[C@H]1C(=O)N(C)C1(C#N)CC1` [Example 94, (2S,4R)-4-(2-Chloro-benzenesulfonyl)-1-methyl-pyrrolidine-2-carboxylic acid (1-cyano-cyclopropyl)-methyl-amide Formiate] were 40000 nM and 945 nM.
`COC(=O)N1C[C@H](S(=O)(=O)c2ccccc2Cl)C[C@H]1C(=O)NC1(C#N)CC1` [Example 95, (2S,4R)-4-(2-Chloro-benzenesulfonyl)-2-(1-cyano-cyclopropylcarbamoyl)-pyrrolidine-1-carboxylic acid methyl ester]: the IC50 at Cat L was no less than 25000 nM; at Cathepsin S, 7.6 nM.
As for `CCOC(=O)N1C[C@H](S(=O)(=O)c2ccccc2Cl)C[C@H]1C(=O)NC1(C#N)CC1` [Example 96, (2S,4R)-4-(2-Chloro-benzenesulfonyl)-2-(1-cyano-cyclopropylcarbamoyl)-pyrrolidine-1-carboxylic acid ethyl ester], the IC50 on Cat L was 31500 nM; on Cathepsin S it was 2.6 nM.
The corresponding values for `CC(C)OC(=O)N1C[C@H](S(=O)(=O)c2ccccc2Cl)C[C@H]1C(=O)NC1(C#N)CC1` [Example 97, (2S,4R)-4-(2-Chloro-benzenesulfonyl)-2-(1-cyano-cyclopropylcarbamoyl)-pyrrolidine-1-carboxylic acid Isopropyl Ester] are 22800 nM and 2.4 nM.
For the compound `N#CC1(NC(=O)[C@@H]2C[C@@H](S(=O)(=O)c3ccccc3Cl)CN2C(=O)OC2CCCC2)CC1` [Example 98, (2S,4R)-4-(2-Chloro-benzenesulfonyl)-2-(1-cyano-cyclopropylcarbamoyl)-pyrrolidine-1-carboxylic acid Cyclopentyl Ester], the results for the IC50 on Cat L and on Cathepsin S were 15700 nM and 1.1 nM, respectively.
Consider `N#CC1(NC(=O)[C@@H]2C[C@@H](S(=O)(=O)c3ccccc3Cl)CN2C(=O)Oc2ccc(F)cc2)CC1` [Example 99, (2S,4R)-4-(2-Chloro-benzenesulfonyl)-2-(1-cyano-cyclopropylcarbamoyl)-pyrrolidine-1-carboxylic acid 4-fluoro-phenyl Ester], for which the values for the IC50 on Cat L and on Cathepsin S were no less than 25000 nM and 2.6 nM, respectively.
The corresponding values for `N#CC1(NC(=O)[C@@H]2C[C@@H](S(=O)(=O)c3ccccc3C(F)(F)F)CN2C=O)CC1` [Example 100, (2S,4R)-1-Formyl-4-(2-trifluoromethyl-benzenesulfonyl)-pyrrolidine-2-carboxylic acid (1-cyano-cyclopropyl)-amide] are no less than 25000 nM and 7.7 nM.
`CC(=O)N1C[C@H](S(=O)(=O)c2ccccc2C(F)(F)F)C[C@H]1C(=O)NC1(C#N)CC1` [Example 101, (2S,4R)-1-Acetyl-4-(2-trifluoromethyl-benzenesulfonyl)-pyrrolidine-2-carboxylic acid (1-cyano-cyclopropyl)-amide]: the figures for the concentration for half-maximal inhibition (IC50) at Cat L and on Cathepsin S were no less than 25000 nM and 6.7 nM, respectively.
Taken in the same sequence, the figures for `N#CC1(NC(=O)[C@@H]2C[C@@H](S(=O)(=O)c3ccccc3C(F)(F)F)CN2C(=O)C(F)(F)F)CC1` [Example 102, (2S,4R)-1-(2,2,2-Trifluoro-acetyl)-4-(2-trifluoromethyl-benzenesulfonyl)-pyrrolidine-2-carboxylic acid (1-cyano-cyclopropyl)-amide] were no less than 25000 nM and 3.6 nM.
Take `CCC(=O)N1C[C@H](S(=O)(=O)c2ccccc2C(F)(F)F)C[C@H]1C(=O)NC1(C#N)CC1` [Example 103, (2S,4R)-1-Propionyl-4-(2-trifluoromethyl-benzenesulfonyl)-pyrrolidine-2-carboxylic acid (1-cyano-cyclopropyl)-amide]: the IC50 at Cat L was no less than 25000 nM; on Cathepsin S, 1.6 nM.
The corresponding values for `N#CC1(NC(=O)[C@@H]2C[C@@H](S(=O)(=O)c3ccccc3C(F)(F)F)CN2C(=O)C2CCCCC2)CC1` [Example 104, (2S,4R)-1-Cyclohexanecarbonyl-4-(2-trifluoromethyl-benzenesulfonyl)-pyrrolidine-2-carboxylic acid (1-cyano-cyclopropyl)-amide] are no less than 25000 nM and 0.2 nM.
Take `N#CC1(NC(=O)[C@@H]2C[C@@H](S(=O)(=O)c3ccccc3C(F)(F)F)CN2C(=O)C2CCC(C(F)(F)F)CC2)CC1` (stereo partly drawn) [Example 105, (2S,4R)-4-(2-Trifluoromethyl-benzenesulfonyl)-1-(4-trifluoromethyl-cyclohexanecarbonyl)-pyrrolidine-2-carboxylic acid (1-cyano-cyclopropyl)-amide]: the values for the IC50 at Cat L and on Cathepsin S were no less than 25000 nM and 0.3 nM, respectively.
Taken in the same sequence, the figures for `N#CC1(NC(=O)[C@@H]2C[C@@H](S(=O)(=O)c3ccccc3C(F)(F)F)CN2C(=O)c2ccc(F)cc2)CC1` [Example 106, (2S,4R)-1-(4-Fluoro-benzoyl)-4-(2-trifluoromethyl-benzenesulfonyl)-pyrrolidine-2-carboxylic Acid (1-cyano-cyclopropyl)-amide] were no less than 25000 nM and 0.4 nM.
The corresponding values for `N#CC1(NC(=O)[C@@H]2C[C@@H](S(=O)(=O)c3ccccc3C(F)(F)F)CN2Cc2ccccc2)CC1` [Example 107, (2S,4R)-1-Benzyl-4-(2-trifluoromethyl-benzenesulfonyl)-pyrrolidine-2-carboxylic acid (1-cyano-cyclopropyl)-amide] are 16600 nM and 25 nM.
Taken in the same sequence, the figures for `N#CC1(NC(=O)[C@@H]2C[C@@H](S(=O)(=O)c3ccccc3C(F)(F)F)CN2Cc2ccncc2)CC1` [Example 108, (2S,4R)-1-Pyridin-4-ylmethyl-4-(2-trifluoromethyl-benzenesulfonyl)-pyrrolidine-2-carboxylic Acid (1-cyano-cyclopropyl)-amide] were 47700 nM and 5.8 nM.
